Read-outs that look alike come from different tables or passages of the source.
Assays:
[1] = system: MOLM-13 acute myeloid leukemia cell line; experiment: MOLM-13 cell growth inhibition assay; format: cell-based
[2] = system: Kasumi-1 acute myeloid leukemia cell line; experiment: Kasumi-1 cell growth inhibition assay; format: cell-based; conditions: read-out: Kasumi-1 IC50
oncostatin M signaling = conditions: cited from earlier work
[3] = biological target: recombinant human Hsp90 (Hsp90α) (Homo sapiens, UniProt P07900); experiment: Competitive binding to recombinant human Hsp90; conditions: relative to control 17-AAG
[4] = system: human histiocytic lymphoma U-937; conditions: U-937 cells; cited from earlier work
[5] = system: Hsp90 derived from MDA-MB-468 breast cancer cell lysate; experiment: Competitive binding assay to Hsp90 from MDA-MB-468 breast cancer cell lysate
[6] = read-out: MOLM-13 IC50, cell growth inhibition, MOLM-13

IC50 ([1]; read-out: MOLM-13 IC50, cell growth inhibition, MOLM-13, listed as autolytimcyin (2)) | Fold higher Hsp90 affinity than 17-AAG [3] | Fold higher Hsp90 affinity than 17-AAG ([3]; listed as autolytimycin 2) | IC50 ([1]; Homo sapiens, MOLM-13, read-out: MOLM-13 IC50, cell growth inhibition, MOLM-13) | Fold higher Hsp90 affinity than 17-AAG ([3]; listed as reblastatin 1) | Compound | IC50 [1, 6] | IC50 ([1]; read-out: MOLM-13 IC50, cell growth inhibition, MOLM-13, listed as 17-AAG 4) | IC50 [2] | Activity in cell based oncostatin M signaling assay (oncostatin M signaling) | IC50, inhibition of proliferation [4] | IC50 (oncostatin M signaling; read-out: IC50, oncostatin M signaling assay, cell-based) | Competitive binding (nanomolar activity) to Hsp90 ([5]; Hsp90 from MDA-MB-468 breast cancer cell lysate) | Fold enhanced activity over geldanamycin ([5]; MDA-MB-468 lysate competitive binding) | Fold less active than 17-AAG ([1]; MOLM-13 cell line)
 |  |  |  |  | C=CCNC1=C2C[C@@H](C)C[C@H](OC)[C@H](O)[C@@H](C)/C=C(\C)[C@H](OC(N)=O)[C@@H](OC)/C=C\C=C(/C)C(=O)NC(=CC1=O)C2=O [17-AAG (4), 17-allylamino-17-demethoxygeldanamycin, reference compound] | 90 nM | ~90 nM | 480 nM |  |  |  |  |  | 
510 nM | 4 fold | about 4 fold |  |  | CO[C@H]1C[C@H](C)Cc2cc(O)cc(c2)NC(=O)/C(C)=C/CC[C@H](OC)[C@@H](OC(N)=O)/C(C)=C/[C@H](C)[C@H]1O [autolytimycin (2), Autolytimycin] | ~510 nM |  | 280 nM | exhibit activity |  |  |  |  | 
 | 4 fold |  | ~270 nM | about 4 fold | COc1c(O)cc2cc1C[C@@H](C)C[C@H](OC)[C@H](O)[C@@H](C)/C=C(\C)[C@H](OC(N)=O)[C@@H](OC)CC/C=C(\C)C(=O)N2 [reblastatin (1), reblastatin] |  |  |  |  | 0.43 µg/mL | 160 nM | 7.34 nM | 4 fold | 3 fold
